Read-outs that look alike come from different tables or passages of the source. Some results are limits rather than exact numbers.

The target of experiment [1] is T1, human muscarinic M1 receptor (Homo sapiens, UniProt P11229).
T1 sequence (P11229 1-460): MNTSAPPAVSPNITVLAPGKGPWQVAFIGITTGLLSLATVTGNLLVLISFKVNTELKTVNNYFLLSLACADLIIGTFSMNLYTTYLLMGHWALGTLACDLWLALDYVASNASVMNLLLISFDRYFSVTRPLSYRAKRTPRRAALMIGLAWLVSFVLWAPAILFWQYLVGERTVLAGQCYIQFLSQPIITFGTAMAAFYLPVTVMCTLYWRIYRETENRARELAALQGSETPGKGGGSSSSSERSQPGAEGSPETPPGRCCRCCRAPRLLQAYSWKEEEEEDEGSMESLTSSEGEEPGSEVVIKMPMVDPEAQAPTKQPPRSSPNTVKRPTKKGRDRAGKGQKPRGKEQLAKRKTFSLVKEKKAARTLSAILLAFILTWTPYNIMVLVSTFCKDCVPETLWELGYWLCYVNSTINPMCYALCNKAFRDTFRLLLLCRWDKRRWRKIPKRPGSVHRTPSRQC
Briefly: Alphascreen Surefire phospho-ERK1/2 functional assay, M1. It is filed as cell-based. As to conditions: for EC50 / pEC50 M1 / % Emax cf. ACh, M1: CHO cells stably expressing human M1; for EC50 / pEC50 M1: phospho-ERK1/2, * = variable results; for EC50: read-out: pEC50 M1 (converted); for Emax: CHO. (Bead proximity is the source of the signal in Alpha formats.)

Experiment [2] concerns the target T2, human muscarinic M4 receptor (Homo sapiens, UniProt P08173).
T2 construct: expressed in transfected cells
T2 sequence (P08173 1-479): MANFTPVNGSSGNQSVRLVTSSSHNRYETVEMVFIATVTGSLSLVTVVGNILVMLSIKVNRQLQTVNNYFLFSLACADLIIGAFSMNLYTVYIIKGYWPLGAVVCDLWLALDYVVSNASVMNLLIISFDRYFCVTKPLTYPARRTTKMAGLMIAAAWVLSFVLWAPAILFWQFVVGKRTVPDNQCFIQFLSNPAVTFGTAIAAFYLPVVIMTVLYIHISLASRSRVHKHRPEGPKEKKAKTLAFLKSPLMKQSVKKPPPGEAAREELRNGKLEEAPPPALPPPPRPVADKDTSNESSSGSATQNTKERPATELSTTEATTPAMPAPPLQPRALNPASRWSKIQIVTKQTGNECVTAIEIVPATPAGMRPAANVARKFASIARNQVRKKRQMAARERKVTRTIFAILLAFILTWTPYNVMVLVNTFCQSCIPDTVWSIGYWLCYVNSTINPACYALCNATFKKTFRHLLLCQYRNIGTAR
Briefly: Alphascreen Surefire phospho-ERK1/2 functional assay, M4. It is filed as cell-based. As to conditions: for EC50 / pEC50 M4 / % Emax cf. ACh, M4: CHO cells stably expressing human M4; for EC50 / pEC50 M4: phospho-ERK1/2, * = variable results; for EC50: read-out: pEC50 M4 (converted); for Emax: CHO.

Experiment [3] concerns scopolamine-induced amnesia. Briefly: Passive avoidance task, scopolamine-induced amnesia. It is filed as in vivo. The procedure:
Studies were carried out as described previously by Foley et al., (2004) Neuropsychopharmacology. In the passive avoidance task scopolamine administration (1 mg/kg, i.p.) at 6 hours following training rendered animals amnesic of the paradigm. A dose range of 3, 10, and 30 mg/kg (po) free base, administered 90 minutes prior to the training period via oral gavage, was examined.

Experiment [4] addresses T3, human muscarinic M2 receptor (Homo sapiens, UniProt P08172).
T3 sequence (P08172 1-466): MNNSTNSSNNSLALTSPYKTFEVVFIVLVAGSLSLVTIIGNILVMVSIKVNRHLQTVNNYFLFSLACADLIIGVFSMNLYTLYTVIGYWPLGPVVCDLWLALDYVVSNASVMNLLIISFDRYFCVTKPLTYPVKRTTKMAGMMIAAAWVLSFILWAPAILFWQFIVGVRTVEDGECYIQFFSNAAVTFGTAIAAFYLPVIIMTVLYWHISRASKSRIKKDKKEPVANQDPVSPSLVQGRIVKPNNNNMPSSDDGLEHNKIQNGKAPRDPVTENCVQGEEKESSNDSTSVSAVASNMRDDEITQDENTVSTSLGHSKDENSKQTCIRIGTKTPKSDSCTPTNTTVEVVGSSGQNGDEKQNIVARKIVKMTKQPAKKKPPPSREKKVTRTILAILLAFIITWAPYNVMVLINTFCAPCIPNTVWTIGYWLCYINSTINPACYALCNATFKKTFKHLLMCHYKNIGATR
Briefly: Alphascreen Surefire phospho-ERK1/2 functional assay, M2. As to conditions: for Emax: CHO; for pEC50 M2 / % Emax cf. ACh, M2: CHO cells stably expressing human M2; for pEC50 M2: phospho-ERK1/2, * = variable results.

The target of experiment [5] is human muscarinic M3 receptor (Homo sapiens, UniProt P20309). Briefly: Alphascreen Surefire phospho-ERK1/2 functional assay, M3. To be noted: for Emax: CHO; for EC50: pEC50 M3, CHO cells stably expressing human M3; for EC50 / pEC50 M3: phospho-ERK1/2, * = variable results; for pEC50 M3 / % Emax cf. ACh, M3: CHO cells stably expressing human M3.
Chain of human muscarinic M3 receptor (P20309 whole entry): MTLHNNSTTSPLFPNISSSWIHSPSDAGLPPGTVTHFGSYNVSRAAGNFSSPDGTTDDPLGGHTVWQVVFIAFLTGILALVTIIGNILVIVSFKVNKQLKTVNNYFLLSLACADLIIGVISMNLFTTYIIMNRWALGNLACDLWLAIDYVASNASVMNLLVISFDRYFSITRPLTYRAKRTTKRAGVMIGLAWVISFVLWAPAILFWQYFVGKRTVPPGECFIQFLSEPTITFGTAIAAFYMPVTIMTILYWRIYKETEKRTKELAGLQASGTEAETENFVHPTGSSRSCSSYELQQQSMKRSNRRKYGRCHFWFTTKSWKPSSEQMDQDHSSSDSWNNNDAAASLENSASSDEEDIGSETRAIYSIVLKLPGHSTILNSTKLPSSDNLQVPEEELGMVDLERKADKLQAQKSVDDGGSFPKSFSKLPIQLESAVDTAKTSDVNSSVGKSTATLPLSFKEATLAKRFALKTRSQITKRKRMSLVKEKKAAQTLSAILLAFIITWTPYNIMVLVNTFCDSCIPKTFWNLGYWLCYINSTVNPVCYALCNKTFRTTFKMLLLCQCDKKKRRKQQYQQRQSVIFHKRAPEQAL
Setting [6] is: read-out: % Emax cf. ACh, M1, CHO cells stably expressing human M1, relative to ACh.
Where [7] appears, read: read-out: % Emax cf. ACh, M4, CHO cells stably expressing human M4, relative to ACh.
[8] abbreviates: read-out: % Emax cf. ACh, M2, CHO cells stably expressing human M2, relative to ACh.
The mark [9] stands for this setting: read-out: % Emax cf. ACh, M3, CHO cells stably expressing human M3, relative to ACh.

In general, Emax refers to the greatest response seen or fitted, relative to the assay's reference. Broadly, the ED50 is the midpoint of the dose-response relation. As to `CCOC(=O)N1CCC2(CC(N3CCC(n4cccn4)CC3)C2)C1` (single isomer, unassigned) [1-33 Isomer 2, ethyl 2-[4-(1H-pyrazol-1-yl)piperidin-1-yl]-6-azaspira[3.4]octane-6-carboxylate], the EC50 in experiment [1] is 25.1 nM; in experiment [2], 3.98 nM; in experiment [5], more than 20000 nM. In addition, the Emax in experiment [1] (read-out: % Emax cf. ACh, M1) is 11%; in experiment [2] (read-out: % Emax cf. ACh, M4), 118%; in experiment [4] (read-out: % Emax cf. ACh, M2), 49%; in experiment [5] (read-out: % Emax cf. ACh, M3), 7%. The “reversal of scopolamine-induced amnesia” value in experiment [3] (3, 10 and 30 mg/kg po) was “reverse scopolamine-induced amnesia of the paradigm in a dose-dependent manner”. For the same molecule, in experiment [3] (po, 90 minutes prior to training, scopolamine 1 mg/kg i.p. 6 hours following training, read-out: approximate ED50, reversal of scopolamine-induced amnesia), the 50% effective dose (ED50) was approximately 10 mg/kg.
Regarding `CCOC(=O)N1CCC2(CC(N3CCC(C4CCCN(C(C)C)C4=O)CC3)C2)C1` (single isomer, unassigned) [4-6 Isomer 2, ethyl 2-[2-oxo-1-(propan-2-yl)-3,4′-bipiperidin-1′-yl]-6-azaspiro[3.4]octane-6-carboxylate], the EC50 was 126 nM in experiment [1], 50.1 nM in experiment [2], more than 20000 nM in experiment [4] and more than 20000 nM in experiment [5]. Besides, the Emax in experiment [1] (setting [6]) came out at 66%; in experiment [2] (setting [7]), 77%; in experiment [4] (setting [8]), 75%; in experiment [5] (setting [9]) it was 9%.
For the molecule `CCOC(=O)N1CCC2(CC(N3CCC(N4CCCOC4=O)CC3)C2)C1` (single isomer, unassigned) [4-7 Isomer 2, ethyl 2-[4-(2-oxo-1,3-oxazinan-3-yl)piperidin-1-yl]-6-azaspiro[3.4]octane-6-carboxylate], the EC50 in experiment [1] was 3980 nM; in experiment [2], 251 nM; in experiment [4], more than 20000 nM; in experiment [5], more than 20000 nM. Also, the Emax in experiment [1] (setting [6]) was found to be 73%; in experiment [2] (setting [7]), 67%; in experiment [4] (setting [8]), 1%; in experiment [5] (setting [9]), 10%.
As for `CCOC(=O)N1CCC2(CC(N3CCC(N4CCCNC4=O)CC3)C2)C1` (single isomer, unassigned) [4-8 Isomer 1, ethyl 2-[4-(2-oxotetrahydropyrimidin-1(2H)-yl)piperidin-1-yl]-6-azaspiro[3.4]octane-6-carboxylate], the EC50 is 501 nM in experiment [1], 63.1 nM in experiment [2], more than 20000 nM in experiment [4] and more than 20000 nM in experiment [5]. The Emax was found to be 42% in experiment [1] (setting [6]), 74% in experiment [2] (setting [7]), 3% in experiment [4] (setting [8]) and 8% in experiment [5] (setting [9]).
`CCOC(=O)N1CCC2(CC(N3CCC(N4CCSCC4)CC3)C2)C1` (single isomer, unassigned) [4-12 Isomer 2, ethyl 2-[4-(thiomorpholin-4-yl)piperidin-1-yl]-6-azaspiro[3.4]octane-6-carboxylate]: the EC50 in experiment [1] is more than 20000 nM; in experiment [2], 39.8 nM; in experiment [4], more than 20000 nM; in experiment [5] it was more than 20000 nM. The Emax in experiment [1] (setting [6]) was 19%; in experiment [2] (setting [7]), 32%; in experiment [4] (setting [8]), 7%; in experiment [5] (setting [9]), 14%.
As to `CCOC(=O)N1CCC2(CC(N3CCC(N4CCCC(F)(F)C4)CC3)C2)C1` (single isomer, unassigned) [4-13 Isomer 2, ethyl 2-(3,3-difluoro-1,4′-bipiperidin-1′-yl)-6-azaspiro[3.4]octane-6-carboxylate], the EC50 in experiment [1] is 631 nM; in experiment [2], 100 nM; in experiment [4], more than 20000 nM; in experiment [5], more than 20000 nM. Also, the Emax in experiment [1] (setting [6]) is 51%; in experiment [2] (setting [7]) it was 59%; in experiment [4] (setting [8]), 10%; in experiment [5] (setting [9]) it was 13%.
As to `CCOC(=O)N1CCC2(CC(N3CCC(N4CCC(F)(F)CC4)CC3)C2)C1` (single isomer, unassigned) [4-14 Isomer 2, ethyl 2-(4,4-difluoro-1,4′-bipiperidin-1′-yl)-6-azaspiro[3.4]octane-6-carboxylate], the EC50 in experiment [1] is 200 nM; in experiment [2], 20 nM; in experiment [4] it was more than 20000 nM; in experiment [5], more than 20000 nM. Also, the Emax in experiment [1] (setting [6]) turned out to be 28%; in experiment [2] (setting [7]), 48%; in experiment [4] (setting [8]) it was 55%; in experiment [5] (setting [9]) it was 0%.
For the molecule `CCOC(=O)N1CCC2(CC(N3CCC(N4CCCC[C@@H]4C(=O)OC)CC3)C2)C1` (single isomer, unassigned) [4-15 Isomer 2], the EC50 in experiment [1] is 251 nM; in experiment [2], 63.1 nM; in experiment [4], more than 20000 nM; in experiment [5] it was more than 20000 nM. Further, the Emax in experiment [1] (setting [6]) worked out at 82%; in experiment [2] (setting [7]) it was 113%; in experiment [4] (setting [8]) it was 7%; in experiment [5] (setting [9]) it was 13%.
As for `CCOC(=O)N1CCC2(CC(N3CCC(N4CCCCCC4C(=O)OC)CC3)C2)C1` (single isomer, unassigned) [5-2 Isomer 2, ethyl 2-{4-[2-(methoxycarbonyl)azepan-1-yl]piperidin-1-yl}-6-azaspiro[3.4]octane-6-carboxylate], the EC50 in experiment [1] was 1000 nM; in experiment [2] it was 50.1 nM; in experiment [4] it was more than 20000 nM; in experiment [5], more than 20000 nM. For the same molecule, the Emax in experiment [1] (setting [6]) was 58%; in experiment [2] (setting [7]), 96%; in experiment [4] (setting [8]) it was 5%; in experiment [5] (setting [9]), 4%.
With `CCOC(=O)N1CCC2(CC(N3CCC(C#N)(c4ccccn4)CC3)C2)C1` (single isomer, unassigned; isomer 1) [3-10 Isomer 1], the “pEC50 M1” value in experiment [1] amounted to 5.9. Moreover, in experiment [1] (relative to ACh), the “% Emax cf. ACh, M1” value is listed as 42%. For the same molecule, the “pEC50 M4” value in experiment [2] worked out at 7.1. Besides, the “% Emax cf. ACh, M4” value in experiment [2] (relative to ACh) was 71%. In experiment [4], the “pEC50 M2” value is less than 4.7. The “% Emax cf. ACh, M2” value in experiment [4] (relative to ACh) is on record as 3%. For the same molecule, in experiment [5], the “pEC50 M3” value was less than 4.7. Moreover, the “% Emax cf. ACh, M3” value in experiment [5] (relative to ACh) was determined as 5%.
For `CCOC(=O)N1CCC2(CC(N3CCC(C#N)(c4ccccn4)CC3)C2)C1` (single isomer, unassigned; isomer 2) [3-10 Isomer 2], the “pEC50 M1” value in experiment [1] amounted to 8.0. The “% Emax cf. ACh, M1” value in experiment [1] (relative to ACh) amounted to 90%. Moreover, the “pEC50 M4” value in experiment [2] turned out to be 8.9. Further, the “% Emax cf. ACh, M4” value in experiment [2] (relative to ACh) turned out to be 103%. The “pEC50 M2” value in experiment [4] turned out to be 7.0. In addition, the “% Emax cf. ACh, M2” value in experiment [4] (relative to ACh) is 96%. Besides, the “pEC50 M3” value in experiment [5] is listed as less than 4.7. Moreover, the “% Emax cf. ACh, M3” value in experiment [5] (relative to ACh) is on record as 0%.

Source of the values: patent US9926297B2, “Bicyclic AZA compounds as muscarinic M1 receptor and/or M4 receptor agonists” (Heptares Therapeutics Limited, priority 2014, dated 2018).
